In paper PMC5449191 (Nature plants, 2016):

Assays:
CsACT = CsACT (Cucumis sativus, UniProt A0A097IYL7); assay: acetyltransferase assay, LC-MS of product; type: biochemical; details: 400 μM acetyl-CoA, 400 μM substrate, pH 7.5, 31°C
CmACT = CmACT (Cucumis melo, UniProt A0A1S3CAV7); assay: acetyltransferase assay, LC-MS of product; type: biochemical; details: 400 μM acetyl-CoA, 400 μM substrate, pH 7.5, 31°C

| SMILES | acetyltransferase assay, LC-MS of product (CsACT) | acetyltransferase assay, LC-MS of product (CmACT; product CuB) | acetyltransferase assay, LC-MS of product (CmACT) |
| --- | --- | --- | --- |
| CC(C)(O)/C=C/C(=O)[C@](C)(O)[C@H]1[C@H](O)C[C@@]2(C)[C@@H]3CC=C4[C@@H](C[C@H](O)C(=O)C4(C)C)[C@]3(C)C(=O)C[C@]12C [CuD] | acylate a wide range of substrates (e.g., CuD, CuI, and deacetyl CuC) | able to acetylate the cucurbitacin precursors CuD and CuI |  |
| CC(C)(O)/C=C/C(=O)[C@](C)(O)[C@H]1[C@H](O)C[C@@]2(C)[C@@H]3CC=C4[C@@H](C=C(O)C(=O)C4(C)C)[C@]3(C)C(=O)C[C@]12C [CuI] |  |  | acylate a wide range of substrates (e.g., CuD, CuI, and deacetyl CuC) |
| CC(C)(O)/C=C/C(=O)[C@](C)(O)[C@H]1[C@H](O)C[C@@]2(C)[C@@H]3CC=C4[C@@H](CC[C@H](O)C4(C)C)[C@]3(CO)C(=O)C[C@]12C [deacetyl CuC] | acylate a wide range of substrates (e.g., CuD, CuI, and deacetyl CuC) |  |  |
